The text below walks through data of patent US8309064B2, “Skin care compositions comprising phenoxyalkyl amines” (Conopco, Inc., priority 2009, dated 2012).

SMILES strings stand for the structures.

This assay concerns Melanoderm tissue equivalent model MEL-300 containing melanocytes. The assay can be described thus: Inhibition of melanogenesis (total melanin content) in Melanoderm tissue equivalent model. Format: cell-based. As to conditions: 14 days; for inhibition at 5 µM: Melanocyte, 336 h, 5 μM in maintenance medium, total melanin content, DMSO vehicle control; for melanogenesis inhibition (in words): Melanoderm MEL-300, 5 μM. On the procedure:
Melanoderm tissue equivalent model MEL-300 (MatTek: Ashland, Mass.) containing melanocytes obtained from dark skin individuals were cultured as per supplier instructions. Components were added to the maintenance medium phase (no topical treatments) at a final concentration of 5 μM for 14 days at which time the experiment was terminated and the tissues assessed for melanin content. Medium and treatments were changed three times per week. DMSO was utilized as the vehicle control and all treatments were performed at least in duplicate.
For quantification of total melanin, each Melanoderm was placed into an individual Eppendorf tube (2 mL) into which 250 μL of Solvable™ tissue solubilizer (Packard Bioscience Co., Cat#6NE9100) was added. Each tube was vortexed and incubated at 60° C. for 18 hours. Each sample was then centrifuged (5-minutes at 13,000 RPMs) to remove any particulates. 100 or 200 μL of supernatant were transferred to a 96 well microtiter plate and the absorbance read at 490 nm. Total melanin content was calculated from a standard curve using synthetic melanin (Sigma Cat# M8631). Data was analyzed for significance using the t-test in Microsoft Excel to generate p-values (p-values less than 0.01 represent 99% confidence, p values of 0.05 represent 95% confidence both of which are statistically significant).

For the compound `Cc1ccccc1OCCNCCO` [5g, 2-(2-(o-tolyloxy)ethylamino)ethanol], the inhibition at 5 µM came out at 3.2%. As for `Cc1ccccc1OCCCCCCN1CCOCC1` [5n], the inhibition at 5 µM stood at 42.1%. Same read-out and setting: the figure for `Cc1ccccc1OCCCCCCn1ccnc1` [5o, 1-(6-(o-tolyloxy)hexyl)-1H-imidazole] is 22.1%.

As to `CN(C)CCCCCCOc1cccc2ccccc12` [5w, N,N-dimethyl-6-(naphthalen-4-yloxy)hexan-1-amine], the inhibition at 5 µM is 51.3%.

Regarding `CC(C)c1ccccc1OCCCCCCN(C)C` [5t, 6-(2-isopropylphenoxy)-N,N-dimethylhexan-1-amine], the inhibition at 5 µM came to 48.5%. For the compound `Cc1ccccc1OCCCCCCNCCO` [5b, 2-[[6-(2-methylphenoxy)hexyl]amino]-ethanol], the inhibition at 5 µM came to 24.1% and the “melanogenesis inhibition (in words)” value is on record as “highest melanogenesis inhibition in this set”. Regarding `CCN(CC)CCCCCCOc1ccccc1C` [5l, 6-(o-tolyloxy)-N,N-diethylhexan-1-amine], the inhibition at 5 µM stood at 45.6%. On the same count and under the same terms, the figure for `Cc1ccccc1OCCCNCCO` [5f, 2-(3-(o-tolyloxy)propyalmino)ethanol] is 10.7%; for `CCNCCCCCCOc1ccccc1C` [5ff, 6-(o-tolyloxy)-N-ethylhexan-1-amine] it is 18.1%; for `CC(C)(C)NCCCCCCOc1ccccc1C(C)(C)C` [5cc, 6-(2-tert-butylphenoxy)-N-tert-butylhexan-1-amine] it is 55.2%. As for `Cc1ccccc1OCCCCCNCCO` [5d, 2-(5-(o-tolyloxy)pentylamino)ethanol], the inhibition at 5 µM was found to be 20.8% and the “melanogenesis inhibition (in words)” value was “highest melanogenesis inhibition in this set”. In the case of `CC(C)(C)NCCCCCCOc1cccc2ccccc12` [5ee, N-tert-butyl-6-(naphthalen-4-yloxy)hexan-1-amine], the inhibition at 5 µM was 35.9%. The same measure, in the same setting: the figure for `Cc1ccc(OCCCCCCNC(C)(C)C)cc1` [5y, 6-(p-tolyloxy)-N-tert-butylhexan-1-amine] is 47.5%; for `Cc1ccc(OCCCCCCN(C)C)cc1` [5q, 6-(p-tolyoxy)-N,N-dimethylhexan-1-amine] it is 41.5%; for `Cc1ccccc1OCCCCCCN(CCO)CCO` [5m, 6-(o-tolyloxy)-N,N-di(2-hydroxyethyl)hexan-1-amine] it is 32.9%. Consider `Cc1ccccc1OCCCCCCNC(C)(C)C` [5i, 6-(o-tolyloxy)-N-tert-butylhexan-1-amine], for which the inhibition at 5 µM was found to be 23.2%. The same measure, in the same setting: the value for `CN(C)CCCCCCOc1ccccc1C(C)(C)C` [5u, 6-(2-tert-butylphenxoy)-N,N-dimethylhexan-1-amine] was 49.6%; that for `CCc1ccccc1OCCCCCCN(C)C` [5r, 6-(2-ethylphenoxy)-N,N-dimethylhexan-1-amine] was 32.9%. The same measure, in the same setting: the value for `CC(=O)N(CCO)CCCCCCOc1ccccc1C` [5jj, N-(6-(o-tolyloxy)hexyl)-N-(2-hydroxyethyl)acetamide] was -5.2%; that for `Cc1ccccc1OCCCCCCN` [5ii, 6-(o-tolyloxy)hexan-1-amine] was -6.9%.

Turning to `CN(C)CCCCCCOc1ccccc1-c1ccccc1` [5v, 6-(2-phenylphenoxy)-N,N-dimethylhexan-1-amine], the inhibition at 5 µM was 56.7%.

With `Cc1ccccc1OCCCCNCCO` [5e, 2-(4-(o-tolyloxy)butylamino)ethanol], the inhibition at 5 µM stood at 17.9%. Turning to `CC(C)c1ccccc1OCCCCCCNC(C)(C)C` [5bb, 6-(2-isopropylphenoxy)-N-tert-butylhexan-1-amine], the inhibition at 5 µM was 44.2%. As to `CC(C)(C)NCCCCCCOc1ccccc1-c1ccccc1` [5dd, 6-(2-phenylphenoxy)-N-tert-butylhexan-1-amine], the inhibition at 5 µM amounted to 54.8%. Still for that read-out and setting: the value for `CCNCCCCCCOc1cccc2ccccc12` [5gg, N-ethyl-6-(naphthalen-1-yloxy)hexan-1-amine] was 35%; that for `Cc1cccc(OCCCCCCN(C)C)c1` [5p, 6-(m-tolyoxy)-N,N-dimethylhexan-1-amine] was 37.1%.

As to `Cc1ccccc1OCCCCCCN(C)C` [5j, 6-(o-tolyloxy)-N,N-dimethylhexan-1-amine], the inhibition at 5 µM amounted to 24.2%. Still for that read-out and setting: the figure for `OCCNCCCCCCOc1ccccc1` [5a, 2-(6-phenoxyhexylamino)ethanol] is 21.9%. On the same count and under the same terms, the value for `OCCNCCCCCCOC1CCCCC1` [5ll, 2-(6-(cyclohexyloxy)hexylamino)ethanol] was 25%; that for `OCCNCCCCCCCc1ccccc1` [5kk, 2-(7-phenylheptylamino)ethanol] was 32.7%; that for `CCN(C)CCCCCCOc1ccccc1C` [5k, 6-(o-tolyoxy)-N-ethyl-N-methylhexan-1-amine] was 23.6%.

In the case of `COCCNCCCCCCOc1ccccc1C` [5c, 6-(o-tolyloxy)-N-(2-methoxyethyl)hexan-1-amine], the inhibition at 5 µM stood at 31.7%. Regarding `CCNCCCCCCOc1ccccc1CC` [5hh, 6-(2-ethylphenoxy)-N-ethylhexan-1-amine], the inhibition at 5 µM is 37.1%.
